We go through 37 compounds from ChEMBL document CHEMBL6182883, “Discovery of a series of novel 3-sulfonamido benzoic acid derivatives as promising P2Y14R antagonists for acute lung injury” (Eur J Med Chem, 2025).

The target of data set [1] is T1, P2Y purinoceptor 14 (Homo sapiens) (UniProt Q15391).
T1 sequence (whole entry): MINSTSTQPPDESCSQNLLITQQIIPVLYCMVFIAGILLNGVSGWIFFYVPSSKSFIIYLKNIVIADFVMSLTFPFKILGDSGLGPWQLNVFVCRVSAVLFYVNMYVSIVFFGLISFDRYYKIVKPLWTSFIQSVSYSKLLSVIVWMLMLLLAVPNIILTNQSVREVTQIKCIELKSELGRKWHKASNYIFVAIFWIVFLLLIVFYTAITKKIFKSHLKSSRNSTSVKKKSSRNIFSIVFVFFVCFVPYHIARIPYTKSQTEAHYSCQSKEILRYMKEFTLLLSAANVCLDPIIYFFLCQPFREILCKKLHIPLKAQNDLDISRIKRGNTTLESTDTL
As to the kind of experiment: Antagonist activity at human P2Y14R expressed in HEK293 cells assessed as inhibition of UDPG-induced Ca2+ level at 5 uM by Fluo-4 dye based fluorescence assay relative to control. It counts as functional, cell-based.

The next data set concerns the target T2, P2Y purinoceptor 14 (Homo sapiens, UniProt Q15391).
T2 sequence (Q15391 whole entry): T1 sequence (whole entry)
The data set can be described thus: Antagonist activity at human P2Y14R expressed in HEK293 cells assessed as inhibition of UDPG-induced Ca2+ level by Fluo-4 dye based fluorescence assay. It counts as functional, cell-based.

Data set [2] can be described thus: Aqueous solubility of the compound in pH 7.4 PBS buffer measured after 24 hrs by shake flask method. The format is physicochemical.
Data set [3] can be described thus: Aqueous solubility of the compound in pH 4 PBS buffer measured after 24 hrs by shake flask method. The format is physicochemical.
The test system of data set [4] is Mus musculus. As to the kind of experiment: Antiinflammatory activity in LPS-induced C57BL/6 mouse ALI model assessed as reduction in alveolar wall thickening at 2 mg/kg, po administered once daily via gavage for 7 days followed by endotoxin challenge at 1 hr post last dose and subsequent LPS stimulation and measured after 24 hrs by H and E staining based histopathological assay. It counts as functional, organism-based. The conditions noted are these: time 8.0 day.

The test system of data set [5] is Mus musculus. As to the kind of experiment: Antiinflammatory activity in LPS-induced C57BL/6 mouse ALI model assessed as reduction in neutrophil infiltration at 2 mg/kg, po administered once daily via gavage for 7 days followed by endotoxin challenge at 1 hr post last dose and subsequent LPS stimulation and measured after 24 hrs by H and E staining based histopathological assay. The format is functional, organism-based. The settings on record: time 8.0 day.

In data set [6] the test system is Mus musculus. The data set can be described thus: Antiinflammatory activity in LPS-induced C57BL/6 mouse ALI model assessed as reduction in IL-1beta expression in BALF at 2 mg/kg, po administered once daily via gavage for 7 days followed by endotoxin challenge at 1 hr post last dose and subsequent LPS stimulation and measured after 24 hrs by ELISA. The settings on record: time 8.0 day. It counts as functional, organism-based. On the technique in general: In an ELISA, binding on a coated surface is turned into a signal by an enzyme label.

The test system of data set [7] is Mus musculus. The data set can be described thus: Antiinflammatory activity in LPS-induced C57BL/6 mouse ALI model assessed as reduction in IL-6 expression in BALF at 2 mg/kg, po administered once daily via gavage for 7 days followed by endotoxin challenge at 1 hr post last dose and subsequent LPS stimulation and measured after 24 hrs by ELISA. It counts as functional, organism-based. The conditions noted are these: time 8.0 day.

In data set [8] the test system is Mus musculus. As to the kind of experiment: Antiinflammatory activity in LPS-induced C57BL/6 mouse ALI model assessed as reduction in TNF-alpha expression in BALF at 2 mg/kg, po administered once daily via gavage for 7 days followed by endotoxin challenge at 1 hr post last dose and subsequent LPS stimulation and measured after 24 hrs by ELISA. The format is functional, organism-based. The settings on record: time 8.0 day.

For data set [9], the system named is Mus musculus. As to the kind of experiment: Antiinflammatory activity in LPS-induced C57BL/6 mouse ALI model assessed as reduction in MPO level in BALF at 2 mg/kg, po administered once daily via gavage for 7 days followed by endotoxin challenge at 1 hr post last dose and subsequent LPS stimulation and measured after 24 hrs by ELISA. It counts as functional, organism-based. The settings on record: time 8.0 day.

pIC50: −log10 of the molar value. Calls of active or inactive are those of the source. The calls are words filed in the database; no cut-off is given here.

With `CC(C)c1ccc(S(=O)(=O)Nc2cc(C(=O)O)cc(-c3ccc(C4CCNCC4)cc3)c2)cc1`, in data set [1] (filed as antagonist), the inhibition (usually how much of the control response was suppressed) amounted to 69.5%.
As for `O=C(O)c1cc(NS(=O)(=O)Cc2ccc([N+](=O)[O-])cc2)cc(-c2ccc(C3CCNCC3)cc2)c1`, the inhibition in data set [1] (filed as antagonist) came to 88.6%. Further, at P2Y purinoceptor 14, the pIC50 – broadly, the IC50 on a negative log10 scale, so that one unit is a factor of ten – was 7.69.
Consider `COc1ccccc1S(=O)(=O)Nc1cc(C(=O)O)cc(-c2ccc(C3CCNCC3)cc2)c1`, for which the inhibition in data set [1] was found to be 14.3%.
On to `O=C(O)c1cc(NS(=O)(=O)CCc2ccc(Br)cc2)cc(-c2ccc(C3CCNCC3)cc2)c1`, for which the inhibition in data set [1] (filed as antagonist) was 96.7%. Moreover, the pIC50 at P2Y purinoceptor 14 is 7.71.
`O=C(O)c1cc(NS(=O)(=O)c2ccc(-c3ccccc3)cc2)cc(-c2ccc(C3CCNCC3)cc2)c1`: in data set [1] (filed as antagonist), the inhibition turned out to be 60.5%.
Regarding `O=C(O)c1cc(NS(=O)(=O)Cc2ccc(Br)cc2)cc(-c2ccc(C3CCNCC3)cc2)c1`, the inhibition in [1] (filed as antagonist) stood at 83.1%.
Take `O=C(O)c1cc(NS(=O)(=O)c2ccc(C(F)(F)F)cc2)cc(-c2ccc(C3CCNCC3)cc2)c1`: in data set [1] (filed as antagonist), the inhibition was 90.8%. For the same compound, at P2Y purinoceptor 14, the pIC50 was 7.63.
In the case of `O=C(O)c1cc(NS(=O)(=O)c2ccc(Cl)cc2)cc(-c2ccc(C3CCNCC3)cc2)c1`, the inhibition in data set [1] (filed as antagonist) was determined as 80.9%.
Turning to `O=C(O)c1cc(NS(=O)(=O)Cc2ccc(F)cc2)cc(-c2ccc(C3CCNCC3)cc2)c1`, the inhibition in data set [1] (filed as antagonist) is 82.8%.
On the same count and under the same terms, the value for `O=C(O)c1cc(NS(=O)(=O)Cc2ccc(Cl)cc2)cc(-c2ccc(C3CCNCC3)cc2)c1` was 80.1%.
For the compound `O=C(O)c1cc(-c2ccc(C3CCNCC3)cc2)c2ccc(-c3ccc(C(F)(F)F)cc3)cc2c1` [PPTN], the thermodynamic solubility at 24 h in data set [2] and in data set [3] was less than 10 µg/mL throughout.
In the case of `O=C(O)c1cc(NS(=O)(=O)c2ccc(-c3ccc([N+](=O)[O-])cc3)cc2)cc(-c2ccc(C3CCNCC3)cc2)c1`, the inhibition in data set [1] (filed as antagonist) stood at 65.1%.
As to `O=C(O)c1cc(NS(=O)(=O)c2ccc(OC(F)(F)F)cc2)cc(-c2ccc(C3CCNCC3)cc2)c1`, the inhibition in data set [1] was found to be 32.1%.
For the compound `O=C(O)c1cc(NS(=O)(=O)CCc2ccc(Cl)cc2)cc(-c2ccc(C3CCNCC3)cc2)c1`, in data set [1] (filed as antagonist), the inhibition worked out at 92.6%. Besides, on P2Y purinoceptor 14, the pIC50 was 7.54.
With `COc1cccc(S(=O)(=O)Nc2cc(C(=O)O)cc(-c3ccc(C4CCNCC4)cc3)c2)c1`, the inhibition in [1] (filed as antagonist) amounted to 47.8%.
Turning to `O=C(O)c1cc(NS(=O)(=O)CCc2ccccc2F)cc(-c2ccc(C3CCNCC3)cc2)c1`, in [1] (filed as antagonist), the inhibition worked out at 86.4%. For the same compound, at P2Y purinoceptor 14, the pIC50 was 7.42.
On the same counts, the results for `O=C(O)c1cc(NS(=O)(=O)Cc2ccc(C(F)(F)F)cc2)cc(-c2ccc(C3CCNCC3)cc2)c1` are 96.5% and 7.62.
On to `O=C(O)c1cc(NS(=O)(=O)c2cccc(F)c2)cc(-c2ccc(C3CCNCC3)cc2)c1`, for which the inhibition in data set [1] (filed as antagonist) is 76.2%.
The same measure, in the same setting: then `O=C(O)c1cc(NS(=O)(=O)c2ccccc2)cc(-c2ccc(C3CCNCC3)cc2)c1`, with 81.5%.
On the same count and under the same terms, then `O=C(O)c1cc(NS(=O)(=O)c2ccc(Br)cc2)cc(-c2ccc(C3CCNCC3)cc2)c1`, with 81%; and `COc1ccc(S(=O)(=O)Nc2cc(C(=O)O)cc(-c3ccc(C4CCNCC4)cc3)c2)cc1`, with 70.8%.
In the case of `COc1ccc(S(=O)(=O)Nc2cc(C(=O)O)cc(-c3ccc(C4CCNCC4)cc3)c2)cc1OC`, the inhibition in [1] was 23.5%.
In the case of `O=C(O)c1cc(NS(=O)(=O)c2ccc(-c3ccccc3F)cc2)cc(-c2ccc(C3CCNCC3)cc2)c1`, the inhibition in data set [1] (filed as antagonist) stood at 43.6%.
For the compound `O=C(O)c1cc(NS(=O)(=O)c2ccc(F)cc2)cc(-c2ccc(C3CCNCC3)cc2)c1`, the inhibition in [1] (filed as antagonist) stood at 85.2%. Further, at P2Y purinoceptor 14, the pIC50 is 7.30.
Take `CC(C)(C)c1ccc(S(=O)(=O)Nc2cc(C(=O)O)cc(-c3ccc(C4CCNCC4)cc3)c2)cc1`: the inhibition in data set [1] (filed as antagonist) was 49.6%.
On the same count and under the same terms, the value for `O=C(O)c1cc(NS(=O)(=O)Cc2ccccc2F)cc(-c2ccc(C3CCNCC3)cc2)c1` was 80.6%; that for `O=C(O)c1cc(NS(=O)(=O)c2ccc(-c3ccc(Br)cc3)cc2)cc(-c2ccc(C3CCNCC3)cc2)c1` was 68.9%; that for `O=C(O)c1cc(NS(=O)(=O)c2ccc(-c3ccc(F)cc3)cc2)cc(-c2ccc(C3CCNCC3)cc2)c1` was 59.7%.
As to `C[C@@H]1C[C@H]2[C@@H]3CCC4=CC(=O)C=C[C@]4(C)[C@@]3(F)[C@@H](O)C[C@]2(C)[C@@]1(O)C(=O)CO`, the result in the data set with Mus musculus [4], with Mus musculus [5], with Mus musculus [6], in the data set on Mus musculus [7], with Mus musculus [8] and in the data set on Mus musculus [9] was Active.
Turning to `O=C(O)c1cc(NS(=O)(=O)c2ccc(-c3ccc(Cl)cc3)cc2)cc(-c2ccc(C3CCNCC3)cc2)c1`, the inhibition in data set [1] (filed as antagonist) turned out to be 79.4%.
Still for that read-out and setting: the value for `O=C(O)c1cc(NS(=O)(=O)c2ccccc2F)cc(-c2ccc(C3CCNCC3)cc2)c1` was 82.3%.
The same measure, in the same setting: then `O=C(O)c1cc(NS(=O)(=O)CCc2ccccc2)cc(-c2ccc(C3CCNCC3)cc2)c1`, with 82.7%.
The same measure, in the same setting: then `O=C(O)c1cc(NS(=O)(=O)Cc2ccccc2)cc(-c2ccc(C3CCNCC3)cc2)c1`, with 81.6%; and `O=C(O)c1cc(NS(=O)(=O)c2ccc(-c3ccc(C(F)(F)F)cc3)cc2)cc(-c2ccc(C3CCNCC3)cc2)c1`, with 76.5%; and `O=C(O)c1cc(NS(=O)(=O)c2ccc([N+](=O)[O-])cc2)cc(-c2ccc(C3CCNCC3)cc2)c1`, with 82.6%.
Regarding `Cc1ccc(S(=O)(=O)Nc2cc(C(=O)O)cc(-c3ccc(C4CCNCC4)cc3)c2)cc1`, in data set [1] (filed as antagonist), the inhibition was found to be 50.6%.
`O=C(O)c1cc(NS(=O)(=O)CCc2ccc(F)cc2)cc(-c2ccc(C3CCNCC3)cc2)c1`: the inhibition in data set [1] (filed as antagonist) is 85.4%. Besides, the pIC50 at P2Y purinoceptor 14 is 7.37.
